Assay results as given in US5545399A, “Cosmetic composition” (Chesebrough-Pond's USA Co., priority 1993, dated 1996).
Like-named read-outs stand apart in the source and are kept apart here.

Experiments:
[1] = system: Pigment producing cells derived from a mammalian melanoma; assay: In vitro melanocyte cell culture: melanin production (absorbance at 540 nm of melanin released into the medium); assay type: cell-based; details: for activity at 300 µM: dihydrophloretin 0.3 mM; for activity at 100 µM: dihydrophloretin 0.1 mM; for activity at 230 µM: dihydrophloretin 0.23 mM; for melanin production as percentage of control / % pigmentation: 5760 min
Description: Test method--In vitro melanocyte cell culture Pigment producing cells derived from a mammalian melanoma are grown in culture by standard methods. Preferred cell lines are B16 or S-91 cells, but other lines or primary mouse or human melanocytes can be used. Melanoma cells are grown in cell culture medium such as RPMI 1640 (GIBCO) supplemented with fetal calf serum and glutamine to approximately 1/3 confluence. The active is dissolved in culture medium, the pH adjusted as required and sterile filtered. The solution is then added to the cells. The cells are cultured for a further period of 4 days and the amount of melanin produced assayed by measuring the absorbance at 540 nm of the melanin released into the medium. The above procedure was used to assess the ability of compositions of (a) dihydrophloretin alone and (b) dihydrophloretin plus retinol to reduce the amount of melanin produced.

in vitro = assay type: cell-based, mammalian; details: melanoma cells
Description: (§1) Pigment producing cells derived from a mammalian melanoma are grown in culture by standard methods. Preferred cell lines are B16 or S-91 cells, but other lines or primary mouse or human melanocytes can be used.
(§2) Melanoma cells are grown in cell culture medium such as RPMI 1640 (GIBCO) supplemented with fetal calf serum and glutamine to approximately 1/3 confluence. The active is dissolved in culture medium, the pH adjusted as required and sterile filtered. The solution is then added to the cells.
(§3) Cell viability in the presence of the inhibitor is tested using neutral red (3-amino-7-dimethylamino-2-methyl phenazine hydrochloride) a water soluble vital dye which passes through the intact plasma membrane and becomes concentrated in lysosomes of viable cells. For any culture, the amount of dye taken up is proportional to the number of viable cells and agents that damage cell and lysosomal membranes inhibit dye incorporation.
(§4) The cells are incubated in 50 μg/ml neutral red solution for 3 hours at 37° C. in 5% CO2 in air. The solution is aspirated, the cells washed once in saline and to them added a solvent (50% H2 O, 49% ethanol, 1% acetic acid) to solubilise the dye. The amount of neutral red dye is quantified by measuring absorbance at 540 nm.
(§5) The above procedure was used to assess the ability of compositions of (a) dihydrophloretin alone and (b) dihydrophloretin plus retinol to reduce the amount of melanin produced.
(§6) The results for melanin production were calculated as percentages of control which contained medium alone. There was no effect on viability at the concentrations of actives reported.

Melanoma cells = assay: in vitro; assay type: cell-based, mammalian
Description: as §1, §2, §3, §4, §5, §6

[2] = Melanocyte, 96 h, Table 4, trans retinol 0, read-out: melanin production as percentage of control
[3] = Melanocyte, 96 h, Table 5, retinol 0, n 3, read-out: % pigmentation

## CC1=C(/C=C/C(C)=C/C=C/C(C)=C/CO)C(C)(C)CCC1 [Trans Retinol, retinol, reference compound]
[1]; Melanocyte, 96 h, Table 4, trans retinol 2.0 μm, dihydrophloretin 0, read-out: melanin production as percentage of control
  activity at 2 µM: 121%
[1]; Melanocyte, 96 h, Table 4, trans retinol 6.7 μm, dihydrophloretin 0, read-out: melanin production as percentage of control
  activity at 6.7 µM: 92.9%
[1]; Melanocyte, 96 h, Table 5, retinol 2.0 μM, dihydrophloretin 0.0, n 1, read-out: % pigmentation
  activity at 2 µM: 120%
[1]; Melanocyte, 96 h, Table 5, retinol 6.7 μM, dihydrophloretin 0.0, n 2, read-out: % pigmentation
  activity at 6.7 µM: 97%
In vitro
  viability at 2 µM: 100%
  viability at 6.7 µM: 100%
Melanoma cells
  cell viability: No adverse effects

## Oc1ccc(CCC(O)c2c(O)cc(O)cc2O)cc1 (stereo not shown) [Dihydrophloretin, dihydrophloretin]
[1]; Melanocyte, 96 h, Table 3, dihydrophloretin 0.01 mM, 4 days, read-out: % of control melanin production
  activity at 10 µM: 100%
[1]; Melanocyte, 96 h, Table 3, dihydrophloretin 0.03 mM, 4 days, read-out: % of control melanin production
  activity at 30 µM: 99.8%
[1]; Melanocyte, 96 h, Table 3, 4 days, read-out: % of control melanin production
  activity at 300 µM: 57%
[1]; [2]
  activity at 100 µM: 98.1%
  activity at 230 µM: 109%
  activity at 300 µM: 109%
[1]; Melanocyte, 96 h, Table 4, dihydrophloretin 0.17 mM, trans retinol 0, read-out: melanin production as percentage of control
  activity at 170 µM: 109%
[1]; [3]
  activity at 100 µM: 99%
  activity at 230 µM: 104%
[1]; Melanocyte, 96 h, Table 5, retinol 0, n 4, read-out: % pigmentation
  activity at 300 µM: 94%
[1]; Table 4, dihydrophloretin 0.1 mM plus trans retinol 2.0 μm
  melanin production as percentage of control: 120.2 % of control
[1]; Table 4, dihydrophloretin 0.1 mM plus trans retinol 6.7 μm, *significantly less (P<0.05) than Control
  melanin production as percentage of control: 82.1 % of control
[1]; Table 4, dihydrophloretin 0.17 mM plus trans retinol 2.0 μm
  melanin production as percentage of control: 111.0 % of control
[1]; Table 4, dihydrophloretin 0.17 mM plus trans retinol 6.7 μm, *significantly less (P<0.05) than Control
  melanin production as percentage of control: 76.0 % of control
[1]; Table 4, dihydrophloretin 0.23 mM plus trans retinol 2.0 μm
  melanin production as percentage of control: 110.0 % of control
[1]; Table 4, dihydrophloretin 0.23 mM plus trans retinol 6.7 μm, *significantly less (P<0.05) than Control
  melanin production as percentage of control: 60.9 % of control
[1]; Table 4, dihydrophloretin 0.3 mM plus trans retinol 2.0 μm
  melanin production as percentage of control: 104.0 % of control
[1]; Table 4, dihydrophloretin 0.3 mM plus trans retinol 6.7 μm, *significantly less (P<0.05) than Control
  melanin production as percentage of control: 34.0 % of control
[1]; Table 5, dihydrophloretin 0.1 mM plus retinol 2.0 μM, n 1
  % pigmentation: 120%
[1]; Table 5, dihydrophloretin 0.1 mM plus retinol 6.7 μM, n 2
  % pigmentation: 86%
[1]; Table 5, dihydrophloretin 0.17 mM plus retinol 2.0 μM, n 1
  % pigmentation: 111%
[1]; Table 5, dihydrophloretin 0.17 mM plus retinol 6.7 μM, n 2
  % pigmentation: 73%
[1]; Table 5, dihydrophloretin 0.23 mM plus retinol 2.0 μM, n 1
  % pigmentation: 110%
[1]; Table 5, dihydrophloretin 0.23 mM plus retinol 6.7 μM, n 2
  % pigmentation: 55%
[1]; Table 5, dihydrophloretin 0.3 mM plus retinol 6.7 μM, n 1
  % pigmentation: 34%
In vitro
  viability at 100 µM: 100%
  viability at 170 µM: 100%
  viability at 230 µM: 100%
  viability at 300 µM: 100%
Melanoma cells
  cell viability: No adverse effects
